Key:
[1] = test system: genotype 1b-Con1 subgenomic replicon cell line; assay: microbe, parasite or virus in culture; assay type: cell-based, HCV; conditions: Hepatitis C virus, read-out: EC50 1b
[2] = target: T1, HCV polymerase 1B (Δ21 NS5B, BK) (Hepatitis C virus genotype 1b, UniProt P26663); assay: biochemical
T1 construct: 20 to 50 nM Δ21 NS5B
In short: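 Δ21 NS5B (genotype 1b, BK […]) preincubated 15 min RT with inhibitor, 2 mM MnCl2, pH 7.4, 60–125 μM GTP; started with 20 μM CTP/ATP, 1 μM 3H-UTP, 5 nM template RNA, run 2–4 h RT. Spermine-precipitated RNA filter-captured, scintillation counted; IC50 from tight-binding (Morrison) fit.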

[3] = test system: genotype 1a-H77 subgenomic replicon cell line; assay: microbe, parasite or virus in culture; assay type: cell-based, HCV; conditions: Hepatitis C virus, read-out: EC50 1a
[4] = target: T2, HCV polymerase 1A (Δ21 NS5B, H77) (Hepatitis C virus genotype 1a, UniProt P27958); assay: biochemical; conditions: IC50 1a
T2 construct: 20 to 50 nM Δ21 NS5B
T2 sequence (P27958 2421-2990, stated change not applied): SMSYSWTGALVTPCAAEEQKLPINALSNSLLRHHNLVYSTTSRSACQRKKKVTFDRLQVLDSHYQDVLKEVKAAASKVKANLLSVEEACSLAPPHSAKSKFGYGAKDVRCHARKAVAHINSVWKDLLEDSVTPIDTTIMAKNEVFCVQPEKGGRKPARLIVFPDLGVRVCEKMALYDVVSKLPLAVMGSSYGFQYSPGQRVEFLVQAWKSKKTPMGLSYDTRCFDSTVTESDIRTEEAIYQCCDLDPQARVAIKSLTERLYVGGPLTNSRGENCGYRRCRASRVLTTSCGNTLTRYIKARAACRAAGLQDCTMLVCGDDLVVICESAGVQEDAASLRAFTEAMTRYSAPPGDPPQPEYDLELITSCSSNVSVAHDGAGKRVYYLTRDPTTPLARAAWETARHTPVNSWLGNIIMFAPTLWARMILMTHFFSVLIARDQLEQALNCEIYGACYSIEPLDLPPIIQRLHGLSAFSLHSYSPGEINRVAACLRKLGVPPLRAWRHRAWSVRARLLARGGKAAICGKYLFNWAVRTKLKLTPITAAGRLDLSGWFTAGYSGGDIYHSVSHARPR
In short: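 Incorporation of 1 μM ^3H-UTP, with 20 μM each of CTP and ATP on 5 nM template RNA, ran 2–4 h at room temperature. Spermine-precipitated product was filtered and scintillation-counted. IC50 came from tight-binding non-linear regression of cpm against inhibitor concentration.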

T1 sequence (P26663 2420-2989, stated change not applied): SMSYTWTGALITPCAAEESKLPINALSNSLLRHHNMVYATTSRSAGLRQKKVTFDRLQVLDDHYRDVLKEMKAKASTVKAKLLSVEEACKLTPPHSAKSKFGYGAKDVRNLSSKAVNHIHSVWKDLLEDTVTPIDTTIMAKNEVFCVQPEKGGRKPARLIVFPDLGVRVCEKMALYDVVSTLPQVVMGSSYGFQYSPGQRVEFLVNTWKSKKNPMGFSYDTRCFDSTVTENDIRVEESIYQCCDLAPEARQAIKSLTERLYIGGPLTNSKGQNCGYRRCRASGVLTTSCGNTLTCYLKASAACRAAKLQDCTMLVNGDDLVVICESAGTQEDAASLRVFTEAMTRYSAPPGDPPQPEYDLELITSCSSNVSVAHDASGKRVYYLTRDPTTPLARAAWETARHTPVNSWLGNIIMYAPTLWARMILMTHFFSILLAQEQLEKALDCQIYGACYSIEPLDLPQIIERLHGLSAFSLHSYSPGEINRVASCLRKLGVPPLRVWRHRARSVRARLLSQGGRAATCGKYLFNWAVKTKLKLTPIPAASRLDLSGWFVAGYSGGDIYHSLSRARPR

Row | Structure (SMILES) | EC50 [1] | IC50 [2] | EC50 [3] | IC50 [4]
1 | COc1c(C#Cc2ccc(NS(C)(=O)=O)cn2)cc(-n2ccc(=O)[nH]c2=O)cc1C(C)(C)C [IB-L2-1.8, N-(6-((3-tert-butyl-5-(2,4-dioxo-3,4-dihydropyrimidin-1(2H)-yl)-2-methoxyphenyl)ethynyl)-pyridin-3-yl)methanesulfonamide] | < 0.01 µM | 0.01 to 0.1 µM | 0.01 to 0.1 µM | < 0.01 µM
2 | COc1c(-c2ccc3c(c2)CC[C@@H]3CNS(C)(=O)=O)cc(-n2ccc(=O)[nH]c2=O)cc1C(C)(C)C (single isomer, unassigned) [IB-L0-2.9] | < 0.01 µM | < 0.01 µM | < 0.01 µM | < 0.01 µM
3 | COc1c(NC(=O)c2ccccc2)cc(N2CCC(=O)NC2=O)cc1C(C)(C)C [IA-L4-1.8, N-(3-tert-butyl-5-(2,4-dioxotetrahydropyrimidin-1(2H)-yl)-2-methoxyphenyl)benzamide] | 0.1 to 1 µM | 0.1 to 1 µM | > 1 µM | > 1 µM
4 | COc1c(C#Cc2cc(F)c(NS(C)(=O)=O)cc2C(F)(F)F)cc(-n2ccc(=O)[nH]c2=O)cc1C(C)(C)C [IB-L2-1.5, N-(4-((3-tert-butyl-5-(2,4-dioxo-3,4-dihydropyrimidin-1(2H)-yl)-2-methoxyphenyl)ethynyl)-2-fluoro-5-(trifluoromethyl)phenyl)methanesulfonamide] | 0.01 to 0.1 µM | 0.01 to 0.1 µM | 0.1 to 1 µM | 0.01 to 0.1 µM
5 | CC(C)(C)c1cc(-n2ccc(=O)[nH]c2=O)cc(-c2ccc3c(CNS(C)(=O)=O)csc3c2)c1Cl [IB-L0-2.35, N-((6-(3-tert-butyl-2-chloro-5-(2,4-dioxo-3,4-dihydropyrimidin-1(2H)-yl)phenyl)benzo[b]thiophen-3-yl)methyl)methanesulfonamide] | 0.1 to 1 µM | 0.01 to 0.1 µM | > 1 µM | 0.01 to 0.1 µM
6 | COc1c(C(=O)Nc2ccc(O)cc2)cc(N2CCC(=O)NC2=O)cc1C(C)(C)C [IA-L3-1.33, 3-tert-butyl-5-(2,4-dioxotetrahydropyrimidin-1(2H)-yl)-N-(4-hydroxyphenyl)-2-methoxybenzamide] | > 1 µM | 0.1 to 1 µM | > 1 µM | > 1 µM
7 | COc1c(C(=O)Nc2cc(CN(C(=O)OC(C)(C)C)S(C)(=O)=O)cs2)cc(N2CCC(=O)NC2=O)cc1C(C)(C)C [IA-L3-1.96, tert-butyl (5-(3-tert-butyl-5-(2,4-dioxotetrahydropyrimidin-1(2H)-yl)-2-methoxybenzamido)thiophen-3-yl)methyl(methylsulfonyl)carbamate] | > 1 µM | > 1 µM | 0.1 to 1 µM | 0.1 to 1 µM
8 | CCNC(=O)CN1C(=O)CCN(c2cc(C(=O)Nc3ccc(N(CC(=O)NCC)S(C)(=O)=O)cc3)c(OC)c(C(C)(C)C)c2)C1=O [IA-L3-1.115, 3-tert-butyl-5-(3-(2-(ethylamino)-2-oxoethyl)-2,4-dioxotetrahydropyrimidin-1(2H)-yl)-N-(4-(N-(2-(ethylamino)-2-oxoethyl)methylsulfonamido)phenyl)-2-methoxybenzamide] | > 1 µM | > 1 µM | > 1 µM | > 1 µM
9 | COc1c(C(=O)Nc2ccc3c(c2)CCC(=O)N3)cc(N2CCC(=O)NC2=O)cc1C(C)(C)C [IA-L3-2.4, 3-tert-butyl-5-(2,4-dioxotetrahydropyrimidin-1(2H)-yl)-2-methoxy-N-(2-oxo-1,2,3,4-tetra hydroquinolin-6-yl)benzamide] | > 1 µM | > 1 µM | > 1 µM | > 1 µM
10 | CNS(=O)(=O)Cc1ccc(NC(=O)c2cc(N3CCC(=O)NC3=O)cc(C(C)(C)C)c2OC)cc1 [IA-L3-1.31, 3-tert-butyl-5-(2,4-dioxotetrahydropyrimidin-1(2H)-yl)-2-methoxy-N-(4-(N-methylsulfamoylmethyl)phenyl)benzamide] | > 1 µM | > 1 µM | > 1 µM | > 1 µM
11 | COc1cc(NS(C)(=O)=O)ccc1NC(=O)c1cc(N2CCC(=O)NC2=O)cc(C(C)(C)C)c1O [IA-L3-1.119, 3-tert-butyl-5-(2,4-dioxotetrahydropyrimidin-1(2H)-yl)-2-hydroxy-N-(2-methoxy-4-(methylsulfonamido)phenyl)benzamide] | 0.01 to 0.1 µM | < 0.01 µM | 0.1 to 1 µM | 0.01 to 0.1 µM
12 | COc1c(-c2cccc(/C(C)=N\NS(C)(=O)=O)c2)cc(N2CCC(=O)NC2=O)cc1C(C)(C)C [IA-L0-1.8, (Z)—N′-(1-(3′-tert-butyl-5′-(2,4-dioxotetrahydropyrimidin-1(2H)-yl)-2′-methoxybiphenyl-3-yl)ethylidene)methanesulfonohydrazide] | > 1 µM | 0.1 to 1 µM | > 1 µM | 0.1 to 1 µM
13 | COc1c(-c2ccc3c(c2)CCC3NNS(C)(=O)=O)cc(-n2ccc(=O)[nH]c2=O)cc1C(C)(C)C (stereo not drawn) [IB-L0-2.31, N′-(5-(3-tert-butyl-5-(2,4-dioxo-3,4-dihydropyrimidin-1(2H)-yl)-2-methoxyphenyl)-2,3-dihydro-1H-inden-1-yl)methanesulfonohydrazide] | 0.01 to 0.1 µM | 0.01 to 0.1 µM | 0.1 to 1 µM | 0.01 to 0.1 µM
14 | COc1c(C#Cc2ccc(NS(C)(=O)=O)cc2Cl)cc(N2CCC(=O)NC2=O)cc1C(C)(C)C [IA-L2-1.14, N-(4-((3-tert-butyl-5-(2,4-dioxotetrahydropyrimidin-1(2H)-yl)-2-methoxyphenyl)ethynyl)-3-chlorophenyl)methanesulfonamide] | < 0.01 µM | < 0.01 µM | < 0.01 µM | < 0.01 µM
15 | COc1c(-c2ccc3c(c2)CCC3=O)cc(-n2ccc(=O)[nH]c2=O)cc1C(C)(C)C [IB-L0-2.50, 1-(3-tert-butyl-4-methoxy-5-(1-oxo-2,3-dihydro-1H-inden-5-yl)phenyl)pyrimidine-2,4(1H,3H)-dione] | 0.1 to 1 µM | 0.01 to 0.1 µM | 0.1 to 1 µM | 0.01 to 0.1 µM
16 | CC(C)(C)c1cc(-n2ccc(=O)[nH]c2=O)cc(C(=O)Nc2ccc(NS(C)(=O)=O)cc2)c1O [IB-L3-1.2, 3-tert-butyl-5-(2,4-dioxo-3,4-dihydropyrimidin-1(2H)-yl)-2-hydroxy-N-(4-(methylsulfonamide)phenyl)benzamide] | 0.01 to 0.1 µM | < 0.01 µM | 0.1 to 1 µM | 0.01 to 0.1 µM
17 | COc1c(-c2ccc3c(c2)CCC3C(=O)NS(C)(=O)=O)cc(-n2ccc(=O)[nH]c2=O)cc1C(C)(C)C (stereo not drawn) [IB-L0-2.34, 5-(3-tert-butyl-5-(2,4-dioxo-3,4-dihydropyrimidin-1(2H)-yl)-2-methoxyphenyl)-N-(methylsulfonyl)-2,3-dihydro-1H-indene-1-carboxamide] | 0.1 to 1 µM | 0.01 to 0.1 µM | > 1 µM | 0.01 to 0.1 µM
18 | CCC(=O)N(c1ccc(NC(=O)c2cc(N3CCC(=O)NC3=O)cc(C(C)(C)C)c2OC)cc1)S(C)(=O)=O [IA-L3-1.70, 3-tert-butyl-5-(2,4-dioxotetrahydropyrimidin-1(2H)-yl)-2-methoxy-N-(4-(N-(methylsulfonyl)propionamido)phenyl)benzamide] | 0.01 to 0.1 µM | > 1 µM | 0.1 to 1 µM | > 1 µM
19 | COc1c(C(=O)Cc2ccc(NS(C)(=O)=O)cc2)cc(N2CCC(=O)NC2=O)cc1C(C)(C)C [IA-L11-1.1, N-(4-(2-(3-tert-butyl-5-(2,4-dioxotetrahydropyrimidin-1(2H)-yl)-2-methoxyphenyl)-2-oxoethyl)phenyl)methanesulfonamide] | 0.01 to 0.1 µM | 0.01 to 0.1 µM | 0.1 to 1 µM | 0.01 to 0.1 µM
20 | COc1c(-c2ccc3c(c2)CC[C@H]3C(C)(C)NS(C)(=O)=O)cc(-n2ccc(=O)[nH]c2=O)cc1C(C)(C)C (single isomer, unassigned) [IB-L0-2.37] | 0.1 to 1 µM | 0.1 to 1 µM | > 1 µM | 0.1 to 1 µM
21 | CC(C)(C)c1cc(C#Cc2ccc(NS(C)(=O)=O)cc2Cl)cc(N2CCC(=O)NC2=O)c1 [IA-L2-1.3, N-(4-((3-tert-butyl-5-(2,4-dioxotetrahydropyrimidin-1(2H)-yl)phenyl)ethynyl)-3-chlorophenyl)methanesulfonamide] | < 0.01 µM | < 0.01 µM | 0.01 to 0.1 µM | < 0.01 µM
22 | CC(C)(C)c1cc(N2CCC(=O)NC2=O)cc(C(=O)Nc2ccc(OS(C)(=O)=O)cc2)c1O [IA-L3-1.19, 4-(3-tert-butyl-5-(2,4-dioxotetrahydropyrimidin-1(2H)-yl)-2-hydroxybenzamido)phenyl methanesulfonate] | > 1 µM | 0.01 to 0.1 µM | > 1 µM | 0.1 to 1 µM
23 | COc1c(C#Cc2ccc(NS(C)(=O)=O)c(Cl)c2)cc(N2CCC(=O)NC2=O)cc1C(C)(C)C [IA-L2-1.15, N-(4-((3-tert-butyl-5-(2,4-dioxotetrahydropyrimidin-1(2H)-yl)-2-methoxyphenyl)ethynyl)-2-chlorophenyl)methanesulfonamide] | 0.1 to 1 µM | 0.01 to 0.1 µM | 0.1 to 1 µM | 0.01 to 0.1 µM
24 | COc1c(C(=O)Nc2ccc(NS(C)(=O)=O)cc2)cc(-n2ccc(=O)[nH]c2=O)cc1C(C)(C)C [IB-L3-1.1, 3-tert-butyl-5-(2,4-dioxo-3,4-dihydropyrimidin-1(2H)-yl)-2-methoxy-N-(4-(methylsulfon amido)phenyl)benzamide] | 0.01 to 0.1 µM | 0.01 to 0.1 µM | 0.1 to 1 µM | 0.01 to 0.1 µM
